In brackets after ≈: the same amount, converted by molar mass. Read-outs that look alike come from different tables or passages of the source.
Columns and labels:
[1] = biological target: T1, RnpA (Staphylococcus aureus, UniProt P0A0H5); experiment: RnpA mRNA degradation activity assay; type: biochemical
T1 sequence (P0A0H5 1-117): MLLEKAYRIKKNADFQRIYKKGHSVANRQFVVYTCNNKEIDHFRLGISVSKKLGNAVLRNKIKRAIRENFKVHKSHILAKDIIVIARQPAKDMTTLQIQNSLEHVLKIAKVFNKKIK
Method: The RNase P inhibitors described herein were tested for activity toward RnpA mRNA degradation activity. Either 1 μg of total S. aureus RNA or 1 pmol of in vitro synthesized spa mRNA was incubated with 20 pmol RnpA at 37° C. for 15 to 30 min in a reaction buffer (50 mM Tris-HCl pH 8.0, 2 mM NaCl, 2 mM MgCl2) in the absence or presence of the indicated compound. Reactions were stopped by adding an equal volume of 2×RNA loading dye (95% formamide, 0.025% SDS, 0.025% bromophenol blue, 0.025% xylene cyanol FF, 0.5 mM EDTA), run on a denaturing 1.0% agarose-0.66 M formaldehyde gel and stained with ethidium bromide. RNA substrates and corresponding degradation products were visualized using a FluorChem 5500 system (Alpha Innotech; San Leandro, Calif.). The inhibitory effects of the test compounds were measured using Image J densitometry software (National Institutes of Health; Bethesda, Md.) to quantify the signal intensity of the RNA band(s) in the negative control (RNA alone), positive control (RnpA+RNA+DMSO), and experimental samples (RnpA+RNA+test compound). The percent enzyme inhibition of test compounds was calculated using the following equation: Percent inhibition=[(experimental signal-positive control)/(negative control signal-positive control signal)]*100.

[2] = biological target: T2, S. aureus RNase P (RnpA+rnpB) (Staphylococcus aureus, UniProt P0A0H5); experiment: RNase P activity assay (precursor tRNA processing); type: biochemical; details: gel densitometry
T2 sequence (P0A0H5 1-117): T1 sequence (P0A0H5 1-117)
Method: The RNase P inhibitors described herein were tested for activity toward RNase P. S. aureus RNase P activity assays were performed in low salt buffer (50 mM Tris-HCl pH 8.0, 5 mM MgCl2) or in high salt buffer (50 mM Tris-HCl pH 8.0, 100 mM MgCl2, 800 mM NH4Cl). For all reactions, ptRNATyr, tRNATyr, or rnpB RNA species were first denatured by heating to 95° C. for 3 minutes, and then slowly cooling the mixtures to room temperature. RNase P was reconstituted by mixing an equal molar ratio of RnpB and RnpA for 15 min at 37° C. Precursor tRNA processing reactions (20 μL) were performed by mixing 1.25 pmol RNase P (RnpA+rnpB), RnpA, or rnpB with an equal volume of 2× low salt buffer or 2× high salt buffer and 10 pmol ptRNATyr. Mixtures were incubated for 15 min at 37° C. Reactions were stopped by adding 20 μL 2×RNA loading dye (95% formamide, 0.025% SDS, 0.025% bromophenol blue, 0.025% xylene cyanol FF, 0.5 mM EDTA), and 30 μL of each sample was electrophoresed in a 7 M urea/8% polyacrylamide gel and was then stained with ethidium bromide (0.5 μg/ml). Where indicated, reactions were repeated in the presence of the indicated amount of putative RnpA inhibitors or dimethyl sulfoxide (DMSO). A FluorChem 5500 imaging system was used to visualize the RNA, and the relative abundance of the mature tRNATyr band in the positive control (RNase P+DMSO) or in samples containing test compounds was measured using Image J densitometry software (NIH). The percent RNase P activity was then calculated using the following calculation: (test compound tRNATyr signal/positive control tRNATyr signal)*100.

[3] = tested on: S. aureus strain UAMS-1; experiment: Fractional Inhibitory Concentration testing with mupirocin; type: cell-based; details: combined with mupirocin, S. aureus UAMS-1, Mueller Hinton broth, 18 hours; synergistic FIC≤0.5
Method: The RNase P inhibitors described herein were tested for Fractional Inhibitory Concentration (FIC) in the presence of mupirocin. FIC testing was performed to determine the combined effects of mupirocin and the RnpA inhibitors as described herein. Individual wells of a 96-well microtiter plate were inoculated with 1×10^5 CFU of S. aureus strain UAMS-1 in a Mueller Hinton broth. Each row of the plate contained increasing concentrations of RNPA1000 or RNPA2000 (two-fold increments; 0, 0.004, 0.008, 0.016, 0.03, 0.06, 0.125, 0.25, 0.5, 1, 2, or 4×MIC), whereas each column contained increasing concentrations of the indicated antibiotic (two-fold increments; 0, 0.06, 0.125, 0.25, 0.5, 1, 2, or 4×MIC). Plates were incubated for 18 hours at 37° C., and growth was detected by the unaided eye. The FIC was determined using the following formula: (MIC of Drug A in Combination/MIC of Drug A Alone)+(MIC of Drug B in Combination/MIC of Drug B Alone)=FIC. A synergistic interaction was defined as an FIC value≤0.5, no interaction as an FIC of 0.5-4, or an antagonistic interaction FIC>4.

[4] = tested on: Staphylococcus aureus strain UAMS-1; experiment: Antimicrobial susceptibility testing (MIC, broth microdilution); type: cell-based; details: S. aureus UAMS-1, Mueller Hinton broth, 37° C.
Method: The RNase P inhibitors described herein were tested for antimicrobial activity toward Staphylococcus aureus strain UAMS-1. Individual wells of a 96-well microtiter plate were inoculated with ˜1×10^5 colony-forming units (CFU) of the indicated organism, containing two-fold increasing concentrations (from 0 to 256 μg mL^−1) of the indicated antibiotic or putative RnpA inhibitor, and incubated at 37° C. for 18 hours in Mueller Hinton broth. The MIC was defined as the lowest concentration of antibiotic in which there was no visible bacterial growth in the wells. Minimum bactericidal concentration testing was performed by enumerating the bacterial cells in each of the wells containing treatments at and above the MIC.

[5] = RnpA mRNA degradation, gel densitometry, read-out: RnpA IC50
[6] = ptRNATyr processing, read-out: RNase P IC50
[7] = Staphylococcus aureus, UAMS1, 18 h, read-out: MIC

Row | SMILES | IC50 [1, 5] | IC50 [2, 6] | MIC [4, 7] | MIC ([4]; 18 hours) | FIC with Mupirocin [3] | IC50 [1] | IC50 ([2]; RNase P IC50, ptRNATyr processing)
1 | CC(C)c1ccc(OCC(=O)NNC(=S)NC(=O)c2cccs2)cc1 [MC-190029] | > 500 µM | 380 µM | 128 µg/mL (≈ 339 µM) | – | 0.5 | – | –
2 | CC(C)c1ccc(OCC(=O)NNC(=S)NC(=O)c2ccsc2)cc1 [MC-190030] | – | 395 µM | 64 µg/mL (≈ 170 µM) | – | 0.375 | > 500 µM | –
3 | CC(C)c1ccc(OCC(=O)NNC(=S)NC(=O)c2cc3ccccc3o2)cc1 [MC-190031] | 60 µM | 1 µM | 32 µg/mL (≈ 77.8 µM) | – | 0.25 | – | –
4 | COc1ccccc1C(=O)NNC(=O)COc1ccc(C(C)C)cc1 [MC-190032] | > 500 µM | 75 µM | > 128 µg/mL | – | 0.75 | – | –
5 | COc1ccccc1C(=O)NC(=S)NNC(=O)COc1ccc(C(C)C)cc1 [MC-190033] | 250 µM | > 500 µM | 128 µg/mL (≈ 319 µM) | – | 0.3125 | – | –
6 | CC(C)c1ccc(OCC(=O)NNC(=S)NC(=O)c2ccno2)cc1 [MC-190037] | – | > 500 µM | 32 µg/mL (≈ 88.3 µM) | – | 0.625 | – | –
7 | Cc1ccoc1C(=O)NNC(=O)COc1ccc(C(C)C)cc1 [MC-190040] | 480 µM | 230 µM | > 256 µg/mL | – | 0.625 | – | –
8 | Cc1ccc(C(=O)NC(=S)NNC(=O)COc2ccc(C(C)C)cc2)o1 [MC-190044] | 30 µM | 105 µM | 32 µg/mL (≈ 85.2 µM) | – | 0.49 | – | –
9 | CC(C)c1ccc(OCC(=O)NNC(=S)NC(=O)/C=C/c2ccco2)cc1 [MC-190045] | 100 µM | 32 µM | 64 µg/mL (≈ 165 µM) | – | 0.625 | – | –
10 | CC(C)c1ccc(OCC(=O)NNC(=S)NC(=O)c2ccc(Br)o2)cc1 [MC-190046] | 30 µM | 140 µM | 32 µg/mL (≈ 72.7 µM) | – | 0.3125 | – | –
11 | CC(C)c1ccc(OCC(=O)NNC(=S)NC(=O)/C=C/c2cc3ccccc3o2)cc1 [MC-190047] | 30 µM | 26 µM | 64 µg/mL (≈ 146 µM) | – | 0.625 | – | –
12 | CC(C)c1ccc(OCC(=O)NNC(=O)/C=C/c2cc3ccccc3o2)cc1 [MC-190048] | < 50 µM | < 50 µM | > 256 µg/mL | – | 0.5625 | – | –
13 | CC(C)c1ccc(OCC(=O)NNC(=S)NC(=O)c2cccnc2)cc1 [MC-190049] | – | 160 µM | 64 µg/mL (≈ 172 µM) | – | 1 | > 500 µM | –
14 | CC(C)c1ccc(OCC(=O)NNC(=S)NC(=O)c2nc3ccccc3[nH]2)cc1 [MC-190052] | 150 µM | 90 µM | 128 µg/mL (≈ 311 µM) | – | 0.56 | – | –
15 | CC(C)c1ccc(OCC(=O)NNC(=S)NC(=O)c2cc3ccccc3n2C)cc1 [MC-190056] | 240 µM | – | 64 µg/mL (≈ 151 µM) | – | 0.49 | – | –
16 | CC(C)c1ccc(OCC(=O)NNC(=S)NC(=O)c2cc3cc(F)ccc3[nH]2)cc1 [MC-190062] | – | – | 64 µg/mL (≈ 149 µM) | – | 0.56 | – | –
17 | CCCOc1ccc(OCC(=O)NNC(=S)NC(=O)c2ccco2)cc1 [MC-190072] | – | – | 128 µg/mL (≈ 339 µM) | – | 0.625 | – | –
18 | Cc1ccc(C(=O)NNC(=S)NC(=O)c2ccco2)cc1 [MC-190073] | – | – | – | 64 µg/mL (≈ 211 µM) | 0.75 | – | –
19 | O=C(/C=C/c1ccccc1)NNC(=S)NC(=O)c1ccco1 [MC-190074] | – | – | 64 µg/mL (≈ 203 µM) | – | 0.625 | – | –
20 | CC(C)c1ccc(OCC(=O)NNC(=S)NC(=O)c2ccc3ccccc3n2)cc1 [MC-190077] | – | – | > 128 µg/mL | – | 0.53 | – | –
21 | CC(C)c1ccc(/C=C/C(=O)NNC(=S)NC(=O)c2ccco2)cc1 [MC-190078] | – | – | 64 µg/mL (≈ 179 µM) | – | 0.625 | – | –
22 | O=C(COc1ccccc1)NNC(=S)NC(=O)c1ccco1 [MC-190079] | – | – | > 128 µg/mL | – | 0.75 | – | –
23 | CC(C)c1ccc(OCC(=O)NNC(=S)NC(=O)c2cccc(-c3ccccc3)n2)cc1 [MC-190081] | – | – | > 128 µg/mL | – | 0.56 | – | –
24 | O=C(COc1ccc(Cl)cc1Cl)NNC(=S)NC(=O)c1ccco1 [ST5682846] | > 500 µM | – | 4 µg/mL (≈ 10.3 µM) | – | – | – | 80 µM

More lines, main results first:

Row | IC50 [1, 5] | IC50 [2, 6] | MIC [4, 7] | MIC ([4]; 18 hours) | SMILES | FIC with Mupirocin [3] | IC50 [1] | IC50 ([2]; RNase P IC50, ptRNATyr processing)
25 | > 500 µM | – | 16 µg/mL (≈ 49.8 µM) | – | Cc1cc(C)cc(OCC(=O)NNC(=S)NC(=O)C2CC2)c1 [ST5523339] | 1 | – | –
26 | – | 350 µM | 8 µg/mL (≈ 18.2 µM) | – | CC(C)c1ccc(OCC(=O)NNC(=S)NC(=O)c2ccco2)c(Br)c1 [ST5524693] | 0.49 | – | –
27 | 150 µM | > 500 µM | > 128 µg/mL | – | Cc1ccc(OCc2ccc(C(=O)NNC(=S)NCC(C)C)o2)c(C)c1 [ST5607269] | – | – | –
28 | > 500 µM | > 500 µM | > 128 µg/mL | – | CCc1ccc(OCc2ccc(C(=O)NNC(=S)NCC(C)C)o2)cc1 [ST5607293] | – | – | –
29 | > 500 µM | > 500 µM | 128 µg/mL (≈ 366 µM) | – | COc1cccc(OC)c1C(=O)NC(=S)NNC(=O)c1ccco1 [ST5638707] | – | – | –
30 | > 500 µM | 430 µM | 64 µg/mL (≈ 211 µM) | – | Cc1ccccc1C(=O)NNC(=S)NC(=O)c1ccco1 [ST5638722] | – | – | –
31 | > 500 µM | > 500 µM | 16 µg/mL (≈ 49.8 µM) | – | O=C(NC(=S)NNC(=O)c1ccc(O)cc1O)c1ccco1 [ST5640720] | – | – | –
32 | > 500 µM | > 500 µM | 32 µg/mL (≈ 110 µM) | – | O=C(NNC(=S)NC(=O)c1ccco1)c1cnccn1 [ST5641784] | – | – | –
33 | > 500 µM | > 500 µM | 16 µg/mL (≈ 47.4 µM) | – | O=C(Cc1ccc(Cl)cc1)NNC(=S)NC(=O)c1ccco1 [ST5642600] | – | – | –
34 | > 500 µM | 70 µM | – | 16 µg/mL (≈ 52.7 µM) | Cc1ccc(C(=O)NNC(=S)NC(=O)c2ccco2)cc1 [ST5682777] | – | – | –
35 | > 500 µM | > 500 µM | > 128 µg/mL | – | COc1ccccc1OCC(=O)NNC(=S)NC(=O)c1ccco1 [ST5682778] | – | – | –
36 | > 500 µM | > 500 µM | – | 16 µg/mL (≈ 52.4 µM) | O=C(NC(=S)NNC(=O)c1ccccc1O)c1ccco1 [ST5703881] | – | – | –
37 | > 500 µM | > 500 µM | > 128 µg/mL | – | O=C(NC(=S)NNC(=O)c1ccco1)c1ccc(F)c(F)c1 [ST5704832] | – | – | –

— patent publication US10028931B2, “Synergistic compositions for treating microbial infections” (UNIVERSITY OF ROCHESTER, priority 2014, dated 2018)
